This data set concerns Spontaneous Hypertensive rats (SHR). Kind of data set: Rat telemetry, blood pressure and heart rate. The data set is classed as in vivo. Particulars: 3 mg/kg enalapril alone, twice daily oral, SHR. The text has this: Male Sprague Dawley (Taconic Biosciences) rats, Spontaneous Hypertensive rats (Charles River Laboratories, United States), and Dahl Salt Sensitive rats (Medical College of Wisconsin) were implanted with transmitters (HD S10; Data Science International) for collection of BP and heart rate (HR) data. The transmitters are capable of transmitting a BP signal via a pressure catheter inserted into the abdominal aorta. Initially, a baseline was established and recorded. Each rat was then removed from its recording cage and was dosed by p.o. gavage with vehicle or compound and the animals were then returned to the recording cage. Data sampling for BP and HR was carried out in intervals at selected time points for the duration of the experiment.
All data in this manuscript were presented as mean ± SEM with a significance level of p < 0.05, and n represents the number of individual animals. The significance of differences in concentration-response curves in the ear temperature and, myograft study were calculated using t-test, compare to the vehicle group. The EC50 was calculated using GraphPad Prism 8.3 using a 4-parameter logistic non-linear curve fit model. Single-dose rat telemetry data for normal and SHR rats and repeat-dose telemetry data in Dahls salt-sensitive rats were analyzed by two-way repeated measures ANOVA. Treatment group main effects were compared by Tukey’s HSD method. All telemetry data were analyzed with GraphPad Prism 8.3.

As to `CCOC(=O)[C@H](CCc1ccccc1)N[C@@H](C)C(=O)N1CCC[C@H]1C(=O)O` [enalapril, reference compound], the heart rate entry is given as “without affecting the heart rate” and the “lowering of MAP” value came out at 13%.

The values are drawn from paper PMC7506137, “Selective Phosphodiesterase 1 Inhibitor BTTQ Reduces Blood Pressure in Spontaneously Hypertensive and Dahl Salt Sensitive Rats: Role of Peripheral Vasodilation” (Frontiers in Physiology, 2020).
